According to patent US20260297070A1, “CYCLIC [COMPOUND LEFT OUT] WRN INHIBITORS” (Nimbus Wadjet, Inc., priority 2023, published 2026):

Target: T1, human Werner helicase (WRN-BV08, Uniprot Q14191, amino acids 517-1235 with L1074F point mutation) (Homo sapiens, UniProt Q14191, L1074F)
T1 construct: Uniprot Q14191, amino acids 517-1235 with L1074F point mutation; TEV-cleavable 8×His (C, cleaved yes); made in house; host or cells: Sf9 insect cells (baculovirus)
Experiment: WRN (BV08) ADP-Glo Assay
Assay type: biochemical
Details: 0.15 nM WRN, 5 μM ATP, 0.1 nM DNA duplex, 15 min preincubation, 60 min at 25° C., pH 7.5, 1% DMSO; read-out: ADP-Glo_hWRN_IC50
Procedure, shortened: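 ADP-Glo luminescence read-out of ATP hydrolysis. Conditions: 0.15 nM WRN, 5 μM ATP, 0.1 nM DNA duplex, 1% DMSO, 60 min at 25 °C after 15 min compound preincubation. Max/min controls were DMSO and 20 μM NSC-617145; IC50 from four-parameter fit.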

T1 sequence (Q14191 with tags, fused parts or gaps L1074F limits assumed): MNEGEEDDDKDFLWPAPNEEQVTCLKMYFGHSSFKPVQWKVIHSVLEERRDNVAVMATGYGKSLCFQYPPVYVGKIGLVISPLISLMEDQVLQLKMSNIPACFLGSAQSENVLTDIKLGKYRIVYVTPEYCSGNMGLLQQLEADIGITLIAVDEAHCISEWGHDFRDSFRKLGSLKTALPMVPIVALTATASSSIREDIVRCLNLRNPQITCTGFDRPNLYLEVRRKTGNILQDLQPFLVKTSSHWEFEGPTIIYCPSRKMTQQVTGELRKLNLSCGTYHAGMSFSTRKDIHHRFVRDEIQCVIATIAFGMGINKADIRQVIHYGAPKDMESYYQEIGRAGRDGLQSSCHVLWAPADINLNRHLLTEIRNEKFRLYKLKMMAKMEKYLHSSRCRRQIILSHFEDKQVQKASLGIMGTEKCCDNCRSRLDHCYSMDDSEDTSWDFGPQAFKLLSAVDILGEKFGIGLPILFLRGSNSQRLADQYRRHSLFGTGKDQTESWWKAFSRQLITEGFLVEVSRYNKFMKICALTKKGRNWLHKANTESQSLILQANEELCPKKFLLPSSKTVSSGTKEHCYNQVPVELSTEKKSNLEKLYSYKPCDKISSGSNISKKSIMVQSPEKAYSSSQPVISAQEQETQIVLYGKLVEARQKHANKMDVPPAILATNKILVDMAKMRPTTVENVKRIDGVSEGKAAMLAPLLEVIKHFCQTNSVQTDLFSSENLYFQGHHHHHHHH

| Compound | IC50 |
| --- | --- |
| CC(C)(O)c1cc(CN(C(=O)C(c2ccc(-c3ccc(F)c(F)c3)cc2F)n2ccnn2)C2C=CS(=O)(=O)C2)ccn1 (single isomer, unassigned) [I-801, (2R*)-N-[(3R**)-1,1-dioxo-2,3-dihydro-1lambda6-thiophen-3-yl]-N-{[2-(2-hydroxypropan-2-yl)pyridin-4-yl]methyl}-2-(1H-1,2,3-triazol-1-yl)-2-{3,3′,4′-trifluoro-[1,1′-biphenyl]-4-yl}acetamide] | < 0.5 µM |
| COc1cc(CN(C(=O)Cc2ccc(-n3c(C)ccc3C)cc2F)C2C=CS(=O)(=O)C2)ccn1 (centres unmarked) [I-171, 2-[4-(2,5-dimethyl-1H-pyrrol-1-yl)-2-fluorophenyl]-N-(1,1-dioxo-2,3-dihydro-1lambda6-thiophen-3-yl)-N-[(2-methoxypyridin-4-yl)methyl]acetamide] | 0.5 to 5 µM |
| COc1cc(CN(C(=O)Cn2nc(C)c3cc(C(F)(F)F)ccc32)[C@@H]2C=CS(=O)(=O)C2)ccn1 [I-722, N-[(3R)-1,1-dioxo-2,3-dihydro-1lambda6-thiophen-3-yl]-N-[(2-methoxypyridin-4-yl)methyl]-2-[3-methyl-5-(trifluoromethyl)-1H-indazol-1-yl]acetamide] | > 50 µM |
| COc1cc(CN(C(=O)C(O/C=C/S(C)(=O)=O)c2ccc(-c3ccc(F)c(F)c3)cc2F)[C@@H]2C=CS(=O)(=O)C2)ccn1 (single isomer, unassigned) [I-804, (2R*)-N-[(3R)-1,1-dioxo-2,3-dihydro-1lambda6-thiophen-3-yl]-2-{[(1E)-2-methanesulfonylethenyl]oxy}-N-[(2-methoxypyridin-4-yl)methyl]-2-{3,3′,4′-trifluoro-[1,1′-biphenyl]-4-yl}acetamide] | < 0.5 µM |
| COc1cc(CN(C(=O)C(c2ccc(-c3ccc(F)c(F)c3)cc2F)n2cc(OC(F)F)cn2)[C@@H]2C=CS(=O)(=O)C2)ccn1 (stereo partly drawn) [I-695, 2-[4-(difluoromethoxy)-1H-pyrazol-1-yl]-N-[(3R)-1,1-dioxo-2,3-dihydro-1lambda6-thiophen-3-yl]-N-[(2-methoxypyridin-4-yl)methyl]-2-{3,3′,4′-trifluoro-[1,1′-biphenyl]-4-yl}acetamide] | < 0.5 µM |
| CC(C)(O)c1cc(CN(C(=O)Cn2nc(-c3cc(F)c(F)c(F)c3)cc2N)C2C=CS(=O)(=O)C2)ccn1 (single isomer, unassigned) [I-821] | 0.5 to 5 µM |
| CC(C)(C)OC(=O)N1CC(C(=O)N(Cc2ccncc2)C2C=CS(=O)(=O)C2)c2ccc(-c3ccc(F)cc3)cc21 (centres unmarked) [I-569, tert-butyl 3-[(1,1-dioxo-2,3-dihydro-1lambda6-thiophen-3-yl)[(pyridin-4-yl)methyl]carbamoyl]-6-(4-fluorophenyl)-2,3-dihydro-1H-indole-1-carboxylate] | > 50 µM |
| O=C(Cc1ccc(-n2cccc2)cc1)N(Cc1nc2c(s1)CCCC2)C1C=CS(=O)(=O)C1 (centres unmarked) [I-154, N-(1,1-dioxo-2,3-dihydro-1lambda6-thiophen-3-yl)-2-[4-(1H-pyrrol-1-yl)phenyl]-N-[(4,5,6,7-tetrahydro-1,3-benzothiazol-2-yl)methyl]acetamide] | 0.5 to 5 µM |
| COC(C(=O)N(Cc1ccnc(C(C)(C)O)c1)C1C=CS(=O)(=O)C1)c1ccc(S(F)(F)(F)(F)F)cc1 (single isomer, unassigned) [I-665, (2R*)-N-[(3R**)-1,1-dioxo-2,3-dihydro-1lambda6-thiophen-3-yl]-N-{[2-(2-hydroxypropan-2-yl)pyridin-4-yl]methyl}-2-methoxy-2-[4-(pentafluoro-lambda6-sulfanyl)phenyl]acetamide] | 10 to 50 µM |
| COC(C(=O)N(Cc1ccnc(C(C)(C)O)c1)[C@@H]1C=CS(=O)(=O)C1)c1ccc(-c2ccc(F)c(F)c2)cc1F (single isomer, unassigned) [I-2] | < 0.5 µM |
| CC(C)(O)c1csc(CN(C(=O)Cc2ccc(-c3ccc(F)cc3)cc2F)C2C=CS(=O)(=O)C2)n1 (centres unmarked) [I-79, 2-(3,4′-difluoro-[1,1′-biphenyl]-4-yl)-N-(1,1-dioxido-2,3-dihydrothiophen-3-yl)-N-((4-(2-hydroxypropan-2-yl)thiazol-2-yl)methyl)acetamide] | < 0.5 µM |
| O=C(Cn1cc(-c2ccc(F)c(F)c2)cn1)N(Cc1nc(C2CC2(F)F)cs1)C1C=CS(=O)(=O)C1 (centres unmarked) [I-718, N-{[4-(2,2-difluorocyclopropyl)-1,3-thiazol-2-yl]methyl}-2-[4-(3,4-difluorophenyl)-1H-pyrazol-1-yl]-N-(1,1-dioxo-2,3-dihydro-1lambda6-thiophen-3-yl)acetamide] | < 0.5 µM |
| COc1cc(CN(C(=O)Cc2ccc(-n3cccc3C)cc2F)C2C=CS(=O)(=O)C2)ccn1 (single isomer, unassigned) [I-31] | < 0.5 µM |

Results, then the compound that gave them:

| IC50 | Compound |
| --- | --- |
| 10 to 50 µM | O=C(Cc1ccc2ccccc2c1)N(Cc1ccncc1)C1C=CS(=O)(=O)C1 (centres unmarked) [I-315, N-(1,1-dioxo-2,3-dihydro-1lambda6-thiophen-3-yl)-2-(naphthalen-2-yl)-N-[(pyridin-4-yl)methyl]acetamide] |
| > 50 µM | COc1ccc(CC(=O)N(Cc2ccncc2)C2C=CS(=O)(=O)C2)cc1OC(F)F (centres unmarked) [I-697, 2-[3-(difluoromethoxy)-4-methoxyphenyl]-N-(1,1-dioxo-2,3-dihydro-1lambda6-thiophen-3-yl)-N-[(pyridin-4-yl)methyl]acetamide] |
| 5 to 10 µM | CN(C)C(=O)c1ccc(CN(C(=O)Cc2ccc(-n3cccc3)cc2)C2C=CS(=O)(=O)C2)cc1 (centres unmarked) [I-259, 4-{[N-(1,1-dioxo-2,3-dihydro-1lambda6-thiophen-3-yl)-2-[4-(1H-pyrrol-1-yl)phenyl]acetamido]methyl}-N,N-dimethylbenzamide] |
| 5 to 10 µM | O=C(Cc1ccc(-n2cccc2)cc1)N(Cc1ccc2ncccc2c1)C1C=CS(=O)(=O)C1 (centres unmarked) [I-222, N-(1,1-dioxo-2,3-dihydro-1lambda6-thiophen-3-yl)-2-[4-(1H-pyrrol-1-yl)phenyl]-N-[(quinolin-6-yl)methyl]acetamide] |
| > 50 µM | COCCc1cccn1-c1ccc(CC(=O)N(Cc2ccccc2)C2C=CS(=O)(=O)C2)cc1 (centres unmarked) [I-384, N-benzyl-N-(1,1-dioxo-2,3-dihydro-1lambda6-thiophen-3-yl)-2-{4-[2-(2-methoxyethyl)-1H-pyrrol-1-yl]phenyl}acetamide] |
| > 50 µM | O=C(Cc1ccc(-n2cccc2)cc1)N(Cc1ccccc1Cl)C1C=CS(=O)(=O)C1 (centres unmarked) [I-521, N-[(2-chlorophenyl)methyl]-N-(1,1-dioxo-2,3-dihydro-1lambda6-thiophen-3-yl)-2-[4-(1H-pyrrol-1-yl)phenyl]acetamide] |
| > 50 µM | O=C(Cc1ccc(-n2cccc2)cc1)N(Cc1cc(F)cc(F)c1)C1C=CS(=O)(=O)C1 (centres unmarked) [I-522, N-[(3,5-difluorophenyl)methyl]-N-(1,1-dioxo-2,3-dihydro-1lambda6-thiophen-3-yl)-2-[4-(1H-pyrrol-1-yl)phenyl]acetamide] |
| 10 to 50 µM | O=C(Cc1cc2ccccc2s1)N(Cc1ccncc1)C1C=CS(=O)(=O)C1 (centres unmarked) [I-301, 2-(1-benzothiophen-2-yl)-N-(1,1-dioxo-2,3-dihydro-1lambda6-thiophen-3-yl)-N-[(pyridin-4-yl)methyl]acetamide] |
| > 50 µM | CC(=O)N(C)C(C(=O)N(Cc1ccncc1)C1C=CS(=O)(=O)C1)c1ccc(-n2cccc2)cc1 (centres unmarked) [I-377, N-(1,1-dioxo-2,3-dihydro-1lambda6-thiophen-3-yl)-2-(N-methylacetamido)-N-[(pyridin-4-yl)methyl]-2-[4-(1H-pyrrol-1-yl)phenyl]acetamide] |
| 0.5 to 5 µM | COc1cc(CN(C(=O)Cc2ccc(C3CC3)cc2)C2C=CS(=O)(=O)C2)ccn1 (centres unmarked) [I-162, 2-(4-cyclopropylphenyl)-N-(1,1-dioxo-2,3-dihydro-1lambda6-thiophen-3-yl)-N-[(2-methoxypyridin-4-yl)methyl]acetamide] |
| > 50 µM | O=C(Cc1ccc(-n2cccc2)cc1)N(CCc1ccncc1)C1C=CS(=O)(=O)C1 (centres unmarked) [I-462, N-(1,1-dioxo-2,3-dihydro-1lambda6-thiophen-3-yl)-N-[2-(pyridin-4-yl)ethyl]-2-[4-(1H-pyrrol-1-yl)phenyl]acetamide] |
| 0.5 to 5 µM | CCOc1cc(CN(C(=O)Cc2ccc(-n3cccc3)cc2)C2C=CS(=O)(=O)C2)ccn1 (centres unmarked) [I-141, N-(1,1-dioxo-2,3-dihydro-1lambda6-thiophen-3-yl)-N-[(2-ethoxypyridin-4-yl)methyl]-2-[4-(1H-pyrrol-1-yl)phenyl]acetamide] |
| 5 to 10 µM | N#Cc1cccn1-c1ccc(CC(=O)N(Cc2ccncc2)C2C=CS(=O)(=O)C2)cc1 (centres unmarked) [I-272, 2-[4-(2-cyano-1H-pyrrol-1-yl)phenyl]-N-(1,1-dioxo-2,3-dihydro-1lambda6-thiophen-3-yl)-N-[(pyridin-4-yl)methyl]acetamide] |
| 0.5 to 5 µM | COc1cc(CN(C(=O)Cc2ccc(-c3cccc(F)c3)cc2F)C2C=CS(=O)(=O)C2)ccn1 (centres unmarked) [I-91, 2-{3,3′-difluoro-[1,1′-biphenyl]-4-yl}-N-(1,1-dioxo-2,3-dihydro-1lambda6-thiophen-3-yl)-N-[(2-methoxypyridin-4-yl)methyl]acetamide] |
| 0.5 to 5 µM | O=C(Cc1ccc(-c2cc(F)cc(F)c2)cc1)N(Cc1ccncc1)C1C=CS(=O)(=O)C1 (centres unmarked) [I-166, 2-{3′,5′-difluoro-[1,1′-biphenyl]-4-yl}-N-(1,1-dioxo-2,3-dihydro-1lambda6-thiophen-3-yl)-N-[(pyridin-4-yl)methyl]acetamide] |
| 0.5 to 5 µM | O=C(O)c1ccc(CN(C(=O)Cc2ccc(-n3cccc3)cc2F)C2C=CS(=O)(=O)C2)cc1 (centres unmarked) [I-185, 4-{[N-(1,1-dioxo-2,3-dihydro-1lambda6-thiophen-3-yl)-2-[2-fluoro-4-(1H-pyrrol-1-yl)phenyl]acetamido]methyl}benzoic acid] |
